Experimental findings from US10780092B2, “Fused pyrazine derivatives useful as soluble guanylate cyclase stimulators” (Merck Sharp & Dohme Corp., priority 2016, dated 2020) are described below.

By Ki is commonly meant a dissociation constant, usually derived from enzyme kinetics or from competition with a known ligand.

Experiment [1] addresses sGC α1/β1 heterodimer (Homo sapiens (Human), UniProt Q02108+Q02153). The experiment in a line: Cell-based sGC functional assay (CASA assay), cGMP by HTRF. Conditions: CHO-K1/sGC cells; for Emax: CHO-K1, cGMP production as percentage of maximum of compound A (set to 100%), read-out: % Activation; for EC50: inflection point of cGMP production, 4P fit, read-out: IP; for % Activation: cGMP production as percentage of maximum of compound A (set to 100%). The procedure, abridged: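 CHO-K1 cells stably expressing human sGC α1/β1, with 0.5 mM IBMX, pre-incubated ±1 μM DETA-NO 30 min at 25° C, then compound 1 hr at 37° C (2.5% DMSO). cGMP by HTRF; activation as % of reference activator maximum, 4P fit giving inflection point and maximum […].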

Experiment [2] concerns the target human recombinant sGC enzyme (Homo sapiens (Human), UniProt Q02108+Q02153). As to the kind of experiment: SEC competition binding assay with [3H] Compound B radioligand. Conditions: displacement of 1.6 nM [3H] Compound B, 24 h at 37° C. The procedure, abridged:
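Recombinant human sGC incubated with 1.6 nM [3H] Compound B and test compounds for 24 h at 37° C. Buffer: 50 mM triethanolamine pH 7.4, 3 mM MgCl2, 0.025% BSA, 2 mM DTT, 300 μM DETA/NO, 400 μM GTP, 1% DMSO. Bound ligand separated by gel filtration and counted by scintillation; non-specific binding with 1 μM Compound B; Ki from one-site fit.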

As to `CCCCc1nc(-c2nc(N)c3c(n2)NC(=O)C3(C)c2ccc(O)c(Cl)c2)cn2ccnc12` (stereo not drawn) [Example 75-B, 4-Amino-2-(8-butylimidazo[1,2-a]pyrazin-6-yl)-5-(3-chloro-4-hydroxyphenyl)-5-methyl-5,7-dihydro-6H-pyrrolo[2,3-d]pyrimidin-6-one], in experiment [1], the Emax is 153% and the EC50 was 770 nM. Besides, the Ki in experiment [2] was 6.55 nM.

In the case of `CC1(c2ccc(Cl)c(O)c2)C(=O)Nc2nc(-c3cn4ccnc4c(Cc4cccc(F)c4)n3)nc(NCC(O)C(F)(F)F)c21` (stereo not drawn) [Example 131-AB, 5-(4-Chloro-3-hydroxyphenyl)-2-{8-[(3-fluorophenyl)methyl]imidazo[1,2-a]pyrazin-6-yl}-5-methyl-4-[(3,3,3-trifluoro-2-hydroxypropyl)amino]-5,7-dihydro-6H-pyrrolo[2,3-d]pyrimidin-6-one], in experiment [1], the “% Activation” value turned out to be 96% and the EC50 is 292 nM. For the same compound, the Ki in experiment [2] came out at 0.347 nM.

`CCCCc1nc(-c2nc(N)c3c(n2)NC(=O)C3(C)c2ccc(C(F)(F)F)c(O)c2)cn2ccnc12` (stereo not drawn) [Example 76-B, 4-Amino-2-(8-butylimidazo[1,2-a]pyrazin-6-yl)-5-(3-hydroxy-4-(trifluoromethyl)phenyl)-5-methyl-5,7-dihydro-6H-pyrrolo[2,3-d]pyrimidin-6-one]: in experiment [1], the Emax came out at 110% and the EC50 amounted to 547 nM. Also, in experiment [2], the Ki is 7.89 nM.

Regarding `CC1(c2ccc(Cl)c(O)c2)C(=O)Nc2nc(-c3cn4ccnc4c(Cc4ccc(F)cc4)n3)nc(N)c21` (stereo not drawn) [Example 30-A, 4-Amino-5-(4-chloro-3-hydroxyphenyl)-2-{8-[(4-fluorophenyl)methyl]imidazo[1,2-a]pyrazin-6-yl}-5-methyl-5,7-dihydro-6H-pyrrolo[2,3-d]pyrimidin-6-one], in experiment [1], the Emax came to 88% and the EC50 came to 866 nM. Moreover, the Ki in experiment [2] was 0.292 nM.

Regarding `CC1(c2cc(O)c(C#N)c(F)c2)C(=O)Nc2nc(-c3cn4ncnc4c(CC4CCCCC4)n3)nc(N)c21` (stereo not drawn) [Example 15-B, 4-(4-Amino-2-(8-(cyclohexylmethyl)-[1,2,4]triazolo[1,5-a]pyrazin-6-yl)-5-methyl-6-oxo-6,7-dihydro-5H-pyrrolo[2,3-d]pyrimidin-5-yl)-2-fluoro-6-hydroxybenzonitrile], in experiment [1], the Emax is 107% and the EC50 stood at 771 nM. The Ki in experiment [2] came to 0.158 nM.

As for `CC(C)CCc1nc(-c2nc(N)c3c(n2)NC(=O)C3(C)c2cc(O)c(Cl)cn2)cn2ccnc12` (stereo not drawn) [Example 57-B, 4-Amino-5-(5-chloro-4-hydroxypyridin-2-yl)-2-(8-isopentylimidazo[1,2-a]pyrazin-6-yl)-5-methyl-5,7-dihydro-6H-pyrrolo[2,3-d]pyrimidin-6-one], in experiment [1], the Emax amounted to 67% and the EC50 came to 798 nM. Also, the Ki in experiment [2] came out at 1.24 nM.

On to `CC1(c2ccc(Cl)c(O)c2)C(=O)Nc2nc(-c3cn4ncnc4c(CCC(F)(F)C(F)(F)F)n3)nc(NCCC(F)(F)F)c21` (stereo not drawn) [Example 138-A, 5-(4-Chloro-3-hydroxy-phenyl)-5-methyl-2-(8-(3,3,4,4,4-pentafluoro-butyl)-[1,2,4]triazolo-[1,5-a]pyrazin-6-yl)-4-((3,3,3-trifluoropropyl)-amino)-5,7-dihydro-6H-pyrrolo[2,3-d]pyrimidin-6-one], for which, in experiment [1], the Emax is 65% and the EC50 was 169 nM. Moreover, the Ki in experiment [2] was 4.62 nM.

In the case of `CC1(c2ccc(Cl)c(O)n2)C(=O)Nc2nc(-c3cn4ccnc4c(CC4CCCCC4)n3)nc(N)c21` (stereo not drawn) [Example 49-A, 4-Amino-5-(5-chloro-6-hydroxypyridin-2-yl)-2-(8-(cyclohexylmethyl)imidazo[1,2-a]pyrazin-6-yl)-5-methyl-5,7-dihydro-6H-pyrrolo[2,3-d]pyrimidin-6-one], in experiment [1], the Emax came out at 111% and the EC50 is 363 nM. Also, in experiment [2], the Ki came out at 0.746 nM.

For `CC1(c2ccc(O)c(Cl)c2)C(=O)Nc2nc(-c3cn4ccnc4c(CCC4CCCCC4)n3)nc(N)c21` (stereo not drawn) [Example 77-B, 4-Amino-5-(3-chloro-4-hydroxyphenyl)-2-(8-(2-cyclohexylethyl)imidazo[1,2-a]pyrazin-6-yl)-5-methyl-5,7-dihydro-6H-pyrrolo[2,3-d]pyrimidin-6-one], in experiment [1], the Emax is 99% and the EC50 was 645 nM. For the same compound, the Ki in experiment [2] is 8.79 nM.

Regarding `CC1CCC(Cc2nc(-c3nc(N)c4c(n3)NC(=O)C4(C)c3ccc(O)c(Cl)c3)cn3ccnc23)CC1` (single isomer, unassigned) [Example 120-BB, 4-Amino-5-(3-chloro-4-hydroxyphenyl)-5-methyl-2-{8-[(4-methylcyclo-hexyl)methyl]imidazo-[1,2-a]pyrazin-6-yl}-5,7-dihydro-6H-pyrrolo-[2,3-d]pyrimidin-6-one], in experiment [1], the “% Activation” value stood at 121% and the EC50 amounted to 39 nM. In addition, the Ki in experiment [2] came to 3.79 nM.

For the compound `CC1(c2ccc(Cl)c(O)c2)C(=O)Nc2nc(-c3cn4ccnc4c(Cc4ccc(F)cc4)n3)nc(NCC(O)C(F)(F)F)c21` (single isomer, unassigned) [Example 132-AB, 5-(4-Chloro-3-hydroxy-phenyl)-2-{8-[(4-fluoro-phenyl)methyl]imidazo-[1,2-a]pyrazin-6-yl}-5-methyl-4-[(3,3,3-trifluoro-2-hydroxypropyl)amino]-5,7-dihydro-6H-pyrrolo-[2,3-d]pyrimidin-6-one], in experiment [1], the “% Activation” value is listed as 95% and the EC50 was found to be 736 nM. Further, the Ki in experiment [2] worked out at 1.46 nM.

Take `CC1(c2cc(O)c(C#N)c(F)c2)C(=O)Nc2nc(-c3cn4ccnc4c(Cc4cc(F)ccc4F)n3)nc(N)c21` (stereo not drawn) [Example 101-B, 4-(4-Amino-2-{8-[(2,5-difluorophenyl)methyl]imidazo[1,2-a]pyrazin-6-yl}-5-methyl-6-oxo-6,7-dihydro-5H-pyrrolo[2,3-d]pyrimidin-5-yl)-2-fluoro-6-hydroxybenzonitrile]: in experiment [1], the Emax was 53% and the EC50 amounted to 282 nM. In addition, the Ki in experiment [2] amounted to 0.162 nM.

`CC1(c2cc(O)c(Cl)cn2)C(=O)Nc2nc(-c3cn4ccnc4c(Cc4ccc(F)cc4)n3)nc(N)c21` (stereo not drawn) [Example 92-B, 4-Amino-5-(5-chloro-4-hydroxypyridin-2-yl)-2-{8-[(4-fluorophenyl)methyl]imidazo[1,2-a]pyrazin-6-yl}-5-methyl-5,7-dihydro-6H-pyrrolo[2,3-d]pyrimidin-6-one]: in experiment [1], the Emax amounted to 104% and the EC50 came out at 2860 nM. Moreover, the Ki in experiment [2] is 0.729 nM.

With `CC1(c2cc(O)c(C#N)c(Cl)c2)C(=O)Nc2nc(-c3cn4ncnc4c(Cc4ccccc4F)n3)nc(N)c21` (stereo not drawn) [Example 149-A, 4-(4-amino-2-{8-(2-fluorobenzyl)-[1,2,4]-triazolo[1,5-a]pyrazin-6-yl}-5-methyl-6-oxo-6,7-dihydro-5H-pyrrolo-[2,3-d]pyrimidin-5-yl)-2-chloro-6-hydroxy-benzonitrile], in experiment [1], the Emax is 54% and the EC50 was determined as 583 nM. Moreover, in experiment [2], the Ki worked out at 0.509 nM.

With `CCCCc1nc(-c2nc(N)c3c(n2)NC(=O)C3(C)c2ccc(Cl)c(O)c2)cn2ccnc12` (stereo not drawn) [Example 52-A, 4-Amino-2-(8-butylimidazo[1,2-a]pyrazin-6-yl)-5-(4-chloro-3-hydroxyphenyl)-5-methyl-5,7-dihydro-6H-pyrrolo[2,3-d]pyrimidin-6-one], in experiment [1], the Emax was 85% and the EC50 came to 144 nM. Moreover, the Ki in experiment [2] came to 0.864 nM.

For `CC1(c2cc(O)c(F)c(F)c2)C(=O)Nc2nc(-c3cn4ccnc4c(Cc4ccccc4F)n3)nc(N)c21` (stereo not drawn) [Example 9-B, 4-Amino-5-(3,4-difluoro-5-hydroxyphenyl)-2-{8-[(2-fluorophenyl)methyl]imidazo[1,2-a]pyrazin-6-yl}-5-methyl-5,7-dihydro-6H-pyrrolo[2,3-d]pyrimidin-6-one], in experiment [1], the Emax worked out at 85% and the EC50 came out at 1040 nM. Moreover, the Ki in experiment [2] worked out at 0.126 nM.

Consider `CC1(c2cc(Cl)c(O)c(Cl)c2)C(=O)Nc2nc(-c3cn4ccnc4c(CC4CCCCC4)n3)nc(N)c21` (stereo not drawn) [Example 113-A, 4-Amino-2-(8-(cyclo-hexylmethyl)imidazo-[1,2-a]pyrazin-6-yl)-5-(3,5-dichloro-4-hydroxy-phenyl)-5-methyl-5,7-dihydro-6H-pyrrolo-[2,3-d]-pyrimidin-6-one], for which, in experiment [1], the Emax was 91% and the EC50 amounted to 125 nM. The Ki in experiment [2] amounted to 2.9 nM.

On to `CC1(c2ccc(Cl)c(O)c2Cl)C(=O)Nc2nc(-c3cn4ccnc4c(CC4CCCCC4)n3)nc(N)c21` (stereo not drawn) [Example 69-A, 4-Amino-2-(8-(cyclohexylmethyl)imidazo[1,2-a]pyrazin-6-yl)-5-(2,4-dichloro-3-hydroxyphenyl)-5-methyl-5,7-dihydro-6H-pyrrolo[2,3-d]pyrimidin-6-one], for which, in experiment [1], the Emax is 108% and the EC50 was 1380 nM. Further, the Ki in experiment [2] came to 3.47 nM.

As to `CCCCc1nc(-c2nc(N)c3c(n2)NC(=O)C3(C)c2ccc(O)cc2)cn2ncnc12` (stereo not drawn) [Example 70-B, 4-Amino-2-(8-butyl-[1,2,4]triazolo[1,5-a]pyrazin-6-yl)-5-(4-hydroxyphenyl)-5-methyl-5,7-dihydro-6H-pyrrolo[2,3-d]pyrimidin-6-one], in experiment [1], the Emax was determined as 81% and the EC50 turned out to be 32 nM. Moreover, the Ki in experiment [2] is 3.96 nM.
